Counter-ions that a name gives are not always drawn. Like-named read-outs stand apart in the source and are kept apart here.
How the values were obtained:
[1] = tested on: Phosphorylated Ribosomal Protein S6 (RPS6) in THP-1 cells; assay: THP-1 RPS6 ELISA assay; assay type: cell-based, Human; conditions: 2 hours compound, 10 nM MCP-1 for 15 minutes, Phospho-RPS6 ELISA, read-out: PI3Kγ_THP1_RPS6_ELISA IC50
Summary of the method: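 Phospho-RPS6 in lysates measured by ELISA at 450 nm, corrected at 540 nm, after MCP-1 challenge (10 nM, 15 min) of THP-1 cells that were starved overnight and exposed to test compound for 2 h at 37° C, 2×10^5 cells/well. Curve fit of percent inhibition gives IC50.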

[2] = target: PI3Kγ (p110γ) (Homo sapiens (Human), UniProt P48736); assay: PI3K-γ scintillation proximity assay; assay type: biochemical; conditions: recombinant human PI3Kγ 13 nM, 20 μM PIP2, 2 μM ATP, 120 min, room temperature
Summary of the method: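 Recombinant human p110γ (13 nM) with 20 μM PIP2, 2 μM ATP plus [γ-33P]ATP in 20 mM MOPS pH 6.7, 10 mM MgCl2, 5 mM DTT, 0.03% CHAPS, 2% DMSO. Reaction ran 120 min at room temperature, then was quenched with EDTA and read with WGA SPA beads. IC50 came from percent-of-solvent-control curves.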

[3] = target: PI3Kδ (p110δ/p85α) (Homo sapiens (Human), UniProt O00329); assay: PI3Kδ scintillation proximity assay; assay type: biochemical; conditions: recombinant human PI3Kδ 3.4 nM, 20 μM PIP2, 2 μM ATP, 120 min, room temperature
Summary of the method: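 Recombinant p110δ/p85α (3.4 nM) with 20 μM PIP2, 2 μM ATP plus [γ-33P]ATP in MOPS pH 6.7, MgCl2, DTT, CHAPS, 2% DMSO; 120 min, room temperature. EDTA-quenched product captured on WGA SPA beads, scintillation counted. IC50 from percent solvent-control activity versus log inhibitor concentration.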

[4] = Homo sapiens, THP-1, serum starved THP-1 cells

Chain of PI3Kγ (p110γ) (P48736 whole entry): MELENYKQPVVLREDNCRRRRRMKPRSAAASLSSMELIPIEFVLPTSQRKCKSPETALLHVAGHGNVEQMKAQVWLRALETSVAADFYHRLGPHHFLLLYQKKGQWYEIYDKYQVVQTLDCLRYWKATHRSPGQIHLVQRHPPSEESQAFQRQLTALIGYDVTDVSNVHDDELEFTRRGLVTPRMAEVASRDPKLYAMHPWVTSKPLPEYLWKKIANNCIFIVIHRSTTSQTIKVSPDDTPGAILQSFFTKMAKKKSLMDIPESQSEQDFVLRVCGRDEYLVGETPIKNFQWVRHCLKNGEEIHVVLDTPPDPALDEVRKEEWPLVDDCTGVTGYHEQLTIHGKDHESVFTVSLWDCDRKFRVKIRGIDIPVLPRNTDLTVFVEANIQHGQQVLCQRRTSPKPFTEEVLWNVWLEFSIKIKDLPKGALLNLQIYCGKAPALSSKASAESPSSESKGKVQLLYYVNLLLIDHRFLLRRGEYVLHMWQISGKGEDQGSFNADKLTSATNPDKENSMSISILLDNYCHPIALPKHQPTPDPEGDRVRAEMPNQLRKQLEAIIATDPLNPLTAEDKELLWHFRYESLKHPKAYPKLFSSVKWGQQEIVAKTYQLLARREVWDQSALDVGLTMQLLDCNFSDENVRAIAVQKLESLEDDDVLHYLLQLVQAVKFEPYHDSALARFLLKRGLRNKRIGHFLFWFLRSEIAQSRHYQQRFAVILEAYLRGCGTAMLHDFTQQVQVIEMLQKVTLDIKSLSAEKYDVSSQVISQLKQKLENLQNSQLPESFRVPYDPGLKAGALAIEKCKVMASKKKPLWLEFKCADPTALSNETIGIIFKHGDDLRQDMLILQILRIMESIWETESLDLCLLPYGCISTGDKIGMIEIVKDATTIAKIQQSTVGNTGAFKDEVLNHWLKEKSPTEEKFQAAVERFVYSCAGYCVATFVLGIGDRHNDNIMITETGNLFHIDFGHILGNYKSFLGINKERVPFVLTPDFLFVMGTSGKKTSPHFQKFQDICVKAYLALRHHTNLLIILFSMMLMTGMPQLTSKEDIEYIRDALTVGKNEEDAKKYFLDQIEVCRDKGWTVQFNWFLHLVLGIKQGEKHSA
Chain of PI3Kδ (p110δ/p85α) (O00329 whole entry): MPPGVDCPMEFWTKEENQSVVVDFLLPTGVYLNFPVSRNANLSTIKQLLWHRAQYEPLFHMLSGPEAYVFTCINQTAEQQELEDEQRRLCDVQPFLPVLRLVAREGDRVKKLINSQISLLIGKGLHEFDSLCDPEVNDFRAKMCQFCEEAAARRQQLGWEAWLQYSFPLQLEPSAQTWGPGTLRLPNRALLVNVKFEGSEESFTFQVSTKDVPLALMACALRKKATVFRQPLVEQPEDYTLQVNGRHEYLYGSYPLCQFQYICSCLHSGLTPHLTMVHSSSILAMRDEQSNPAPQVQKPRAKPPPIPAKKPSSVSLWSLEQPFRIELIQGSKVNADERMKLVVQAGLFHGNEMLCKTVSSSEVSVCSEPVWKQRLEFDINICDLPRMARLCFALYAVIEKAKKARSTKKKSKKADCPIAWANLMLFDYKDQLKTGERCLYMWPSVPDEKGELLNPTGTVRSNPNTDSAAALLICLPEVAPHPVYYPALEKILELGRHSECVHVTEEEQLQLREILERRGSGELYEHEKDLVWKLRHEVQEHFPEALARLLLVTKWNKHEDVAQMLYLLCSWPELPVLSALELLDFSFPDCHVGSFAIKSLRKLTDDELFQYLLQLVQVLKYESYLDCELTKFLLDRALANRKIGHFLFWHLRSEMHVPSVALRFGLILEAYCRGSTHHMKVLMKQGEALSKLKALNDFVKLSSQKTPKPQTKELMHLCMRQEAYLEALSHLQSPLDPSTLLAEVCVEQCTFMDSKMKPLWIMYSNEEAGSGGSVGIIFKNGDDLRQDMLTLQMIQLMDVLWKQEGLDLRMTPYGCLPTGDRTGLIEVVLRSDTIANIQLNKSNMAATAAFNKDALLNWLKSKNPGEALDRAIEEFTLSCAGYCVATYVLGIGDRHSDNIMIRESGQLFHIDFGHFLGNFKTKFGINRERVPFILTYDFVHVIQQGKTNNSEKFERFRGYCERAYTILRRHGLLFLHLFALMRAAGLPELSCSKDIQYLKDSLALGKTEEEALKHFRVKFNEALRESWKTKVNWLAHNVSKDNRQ
Chain of PI3Kδ (p110δ/p85α) (P27986 whole entry partner): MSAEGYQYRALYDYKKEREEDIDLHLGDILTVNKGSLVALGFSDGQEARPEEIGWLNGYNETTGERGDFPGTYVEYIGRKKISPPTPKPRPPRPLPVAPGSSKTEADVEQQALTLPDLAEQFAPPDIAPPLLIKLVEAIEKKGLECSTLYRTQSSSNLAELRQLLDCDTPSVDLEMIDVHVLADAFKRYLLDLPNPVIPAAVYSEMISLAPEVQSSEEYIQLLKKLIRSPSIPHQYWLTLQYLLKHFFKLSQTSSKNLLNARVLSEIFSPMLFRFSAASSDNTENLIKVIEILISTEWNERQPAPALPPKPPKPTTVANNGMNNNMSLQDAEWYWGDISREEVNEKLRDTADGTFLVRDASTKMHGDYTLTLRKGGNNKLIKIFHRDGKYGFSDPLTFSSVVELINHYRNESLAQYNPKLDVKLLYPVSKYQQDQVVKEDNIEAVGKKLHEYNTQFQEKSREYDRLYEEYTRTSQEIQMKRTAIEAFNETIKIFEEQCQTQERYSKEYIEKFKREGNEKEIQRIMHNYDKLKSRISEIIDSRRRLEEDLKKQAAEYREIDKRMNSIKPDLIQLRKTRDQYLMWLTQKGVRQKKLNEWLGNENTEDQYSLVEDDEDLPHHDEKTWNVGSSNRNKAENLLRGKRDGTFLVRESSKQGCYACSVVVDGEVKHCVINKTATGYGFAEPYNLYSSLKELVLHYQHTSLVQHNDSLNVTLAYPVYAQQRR

IC50 [1, 4] [nM] | IC50 [2] [nM] | IC50 [3] [nM] | IC50 ([1]; serum starved THP-1 cells, Trifluoroacetate Salt) [nM] | SMILES
> 1000 | 100 to 500 | > 2000 | – | C[C@@H](C1CC1)N1Cc2cc(-c3cnnc(-c4ccn[nH]4)c3)cc(S(C)(=O)=O)c2C1=O [Example 9, (S)-5-(6-(1H-Pyrazol-5-yl)pyridazin-4-yl)-2-(1-cyclopropylethyl)-7-(methylsulfonyl)isoindolin-1-one Trifluoroacetate Salt]
> 1000 | 100 to 500 | > 2000 | – | Cc1cc(-c2cc(-c3cc4c(c(S(C)(=O)=O)c3)C(=O)N([C@@H](C)C3CC3)C4)cnn2)[nH]n1 [Example 10, (S)-2-(1-Cyclopropylethyl)-5-(6-(3-methyl-1H-pyrazol-5-yl)pyridazin-4-yl)-7-(methylsulfonyl)isoindolin-1-one, trifluoroacetate salt]
> 1000 | < 100 | > 2000 | – | Cc1nnc(-c2cc(-c3cc4c(c(S(C)(=O)=O)c3)C(=O)N([C@@H](C)C3CC3)C4)ccn2)[nH]1 [Example 12, (S)-2-(1-Cyclopropylethyl)-5-(2-(5-methyl-4H-1,2,4-triazol-3-yl)pyridin-4-yl)-7-(methylsulfonyl)isoindolin-1-one]
> 1000 | < 100 | > 2000 | – | Cc1cc(-c2cc(-c3cc4c(c(S(C)(=O)=O)c3)C(=O)N([C@@H](C)C3CC3)C4)ccn2)[nH]n1 [Example 14, (S)-2-(1-Cyclopropylethyl)-5-(2-(3-methyl-1H-pyrazol-5-yl)pyridin-4-yl)-7-(methylsulfonyl)isoindolin-1-one, Trifluoroacetate Salt]
> 1000 | < 100 | > 2000 | – | C[C@@H](C1CC1)N1Cc2cc(-c3ccnc(-c4ccn[nH]4)c3)cc(S(C)(=O)=O)c2C1=O [Example 15, (S)-5-(2-(1H-Pyrazol-5-yl)pyridin-4-yl)-2-(1-cyclopropylethyl)-7-(methylsulfonyl)isoindolin-1-one, trifluoroacetate salt]
< 100 | < 100 | 500 to 2000 | – | Cc1cnc(-c2cc(-c3cc4c(c(S(C)(=O)=O)c3)C(=O)N([C@@H](C)C3CC3)C4)ccn2)[nH]1 [Example 16, (S)-2-(1-Cyclopropylethyl)-5-(2-(5-methyl-1H-imidazol-2-yl)pyridin-4-yl)-7-(methylsulfonyl)isoindolin-1-one, Trifluoroacetate Salt]
500 to 1000 | < 100 | > 2000 | – | C[C@@H](C1CC1)N1Cc2cc(-c3ccnc(-c4ncc[nH]4)c3)cc(S(C)(=O)=O)c2C1=O [Example 17, (S)-5-(2-(1H-Imidazol-2-yl)pyridin-4-yl)-2-(1-cyclopropylethyl)-7-(methylsulfonyl)isoindolin-1-one, trifluoroacetate salt]
100 to 500 | < 100 | > 2000 | – | Cc1nc(-c2cc(-c3cc4c(c(C(O)CO)c3)C(=O)N([C@@H](C)C3CC3)C4)ccn2)[nH]c1C (stereo partly drawn) [Example 18, 2-((S)-1-Cyclopropylethyl)-7-(1,2-dihydroxyethyl)-5-(2-(4,5-dimethyl-1H-imidazol-2-yl)pyridin-4-yl)isoindolin-1-one]
– | < 100 | > 2000 | 100 to 500 | Cc1nc(-c2cc(-c3cc4c(c(S(C)(=N)=O)c3)C(=O)N([C@@H](C)C3CC3)C4)ccn2)[nH]c1C (stereo partly drawn) [Example 20, 2-((S)-1-Cyclopropylethyl)-5-(2-(4,5-dimethyl-1H-imidazol-2-yl)pyridin-4-yl)-7-(S-methylsulfonimidoyl)isoindolin-1-one, Trifluoroacetate Salt]
100 to 500 | < 100 | 500 to 2000 | – | CN=S(C)(=O)c1cc(-c2ccnc(-c3nc(C)c(C)[nH]3)c2)cc2c1C(=O)N([C@@H](C)C1CC1)C2 (stereo partly drawn) [Example 23, 2-((S)-1-Cyclopropylethyl)-5-(2-(4,5-dimethyl-1H-imidazol-2-yl)pyridin-4-yl)-7-(N,S-dimethylsulfonimidoyl)isoindolin-1-one]

From patent US11396502B2, “Substituted heterocyclic derivatives as PI3K inhibitors” (Incyte Corporation, priority 2018, dated 2022)
